In patent US20240300980A1, “HETEROCYCLIC COMPOUNDS AS KRAS INHIBITOR, AND PREPARATION THEREFOR AND USE THEREOF IN TREATMENT” (SHANGHAI KECHOW PHARMA, INC., priority 2021, published 2024):

Each molecule was assayed on AGS cells (KRAS^G12D) (assay: Detection of cell proliferation in vitro by MTT/MTS method (cell activity experiment)). Settings: AGS cells; MTT/MTS; 3 days of drug treatment; read-out: AGS IC50.
Assay type: cell-based
Protocol: The above cells were cultured in a complete medium containing 10% fetal bovine serum, 100 IU/mL penicillin and 100 jag/mL streptomycin, in the aseptic incubator with 95% relative humidity and 5% CO2 concentration.
2. Reagents: F12K, D-PBS, FBS, Penicillin Streptomycin, Tryple, MTT (5 mg/mL)
Appropriate amount of compound powder was weighed in a 1.5 mL centrifuge tube, then the corresponding volume of dimethyl sulfoxide (DMSO) was added to form a 20 mM reserve solution. The solution was packed separately and stored in a refrigerator at −20° C. away from light.
The cells were inoculated in a cell culture bottle, added an appropriate amount of complete medium, and cultured in a sterile incubator. When the degree of cell confluence reached more than 80%, subculture was carried out.
The adherent cells in logarithmic growth phase were digested by trypsin or the suspension cells were collected by centrifugation and counted. 90 μL cell suspension was inoculated into 96-well plate according to the cell inoculation density of 1000 cells per well, and 10 μL of 10-fold final concentration compound diluted by culture medium was added 24 hours later. Compared with the hole with the same volume of 5% DMSO as control, the final concentration of DMSO was 0.5%. After 3 days of drug treatment, the cell viability was detected by MTT. The specific methods are as follows: 10 μL MTT per well was added into the incubator for 4 hours, the supernatant was discarded and 150 μL DMSO was added to dissolve the crystal methylazan, and the absorbance of 490 nm was detected by enzyme labeling instrument, or 10 μL MITS per well was added to the incubator for 4 hours, and […] absorbance was detected directly by enzyme labeling instrument. GraphPad Prism 6 software makes dose-effect curve and calculates IC50.

With `CC1CCCc2cc(O)cc(-c3ccc4c(N5C[C@H]6CC[C@@H](C5)N6)nc(OC[C@@]56CCCN5C[C@H](F)C6)nc4c3F)c21` (single isomer, unassigned) [Example 287] the IC50 was 2140 nM.

Same assay, conditions: Homo sapiens, AGS, 72 h, AGS cells; MTT/MTS; 3 days of drug treatment; read-out: AGS IC50

First: CCC1CCCc2cc(O)cc(-c3c(Cl)cc4c(N5C[C@H]6CC[C@@H](C5)N6)nc(OC[C@@]56CCCN5C[C@H](F)C6)nc4c3F)c21 (stereo partly drawn) [Example 303, 4-(4-((1R,5S)-3,8-diazabicyclo[3.2.1]octan-3-yl)-6-chloro-8-fluoro-2-(((2R,7aS)-2-fluorotetrahydro-1H-pyrrolizin-7a(5H)-yl)methoxy)quinazolin-7-yl)-5-ethyl-5,6,7,8-tetrahydronaphthalen-2-ol]
Second: Oc1cc2c(c(-c3ccc4c(N5C[C@H]6CC[C@@H](C5)N6)nc(OC[C@@]56CCCN5C[C@H](F)C6)nc4c3F)c1)C1CC1CC2 (stereo partly drawn) [Example 295, 7-(4-((1R,5S)-3,8-diazabicyclo[3.2.1]octan-3-yl)-8-fluoro-2-(((2R,7aS)-2-fluorotetrahydro-1H-pyrrolizin-7a(5H)-yl)methoxy)quinazolin-7-yl)-1a,2,3,7b-tetrahydro-1H-cyclopropa[a]naphthalen-5-ol]
The IC50 of the first is 8.3-fold lower: 22 nM for the first, 183 nM for the second. The first is the more potent here.

`C#Cc1c(F)ccc2cc(O)cc(-c3ccc4c(N5CC6CCNC6C5)nc(OC[C@@]56CCCN5C[C@H](F)C6)nc4c3F)c12` (stereo partly drawn) [Example 113, 5-ethynyl-6-fluoro-4-(8-fluoro-2-(((2R,7aS)-2-fluorotetrahydro-1H-pyrrolizin-7a(5H)-yl)methoxy)-4-(hexahydropyrrolo[3,4-b]pyrrol-5(1H)-yl)quinazolin-7-yl) naphthalen-2-ol] and `C#Cc1c(F)ccc2cc(O)cc(-c3ncc4c(N5C[C@H]6CC[C@@H](C5)S6(=O)=O)nc(OC[C@@]56CCCN5C[C@H](F)C6)nc4c3F)c12` [Example 23, (1R,5S)-3-(7-(8-ethynyl-7-fluoro-3-hydroxynaphthalen-1-yl)-8-fluoro-2-(((2R, 7aS)-2-fluorotetrahydro-1H-pyrrolizin-7a(5H)-yl)methoxy)pyrido[4,3-d]pyrimidin-4-yl)-8-thia-3-azabicyclo[3.2.1] octane 8,8-dioxide] cannot be ordered by IC50: over 2500 nM for the first, 6950 nM for the second.

Going from `CCc1ccc2cc(O)cc(-c3ncc4c(N5C[C@H]6CC[C@@H](C5)N6)nc(OC[C@@]56CCCN5C[C@H](F)C6)nc4c3F)n12` [Example 351, 5-(4-((1R,5S)-3,8-diazabicyclo[3.2.1]octan-3-yl)-8-fluoro-2-(((2R,7aS)-2-fluorotetrahydro-1H-pyrrolizin-7a(5H)-yl)methoxy)pyrido[4,3-d]pyrimidin-7-yl)-3-ethylindolizin-7-ol] to `Cc1cc(N)nc(-c2ncc3c(N4C[C@H]5CC[C@@H](C4)N5)nc(OC[C@@]45CCCN4C[C@H](F)C5)nc3c2F)c1C1CC1` [Example 72, 6-(4-((1R,5S)-3,8-diazabicyclo[3.2.1]octan-3-yl)-8-fluoro-2-(((2R,7aS)-2-fluorotetrahydro-1H-pyrrolizin-7a(5H)-yl)methoxy)pyrido[4,3-d]pyrimidin-7-yl)-5-cyclopropyl-4-methylpyridin-2-amine], the IC50 rises from 30 nM to over 2500 nM.

`Oc1cc2c(c(-c3c4c(c5c(N6C[C@H]7CC[C@@H](C6)N7)nc(OC[C@@]67CCCN6C[C@H](F)C7)nc5c3F)OCO4)c1)CCCC2` [Example 390, 4-(9-((1R,5S)-3,8-diazabicyclo[3.2.1]octan-3-yl)-5-fluoro-7-(((2R,7aS)-2-fluorotetrahydro-1H-pyrrolizin-7a(5H)-yl)methoxy)-[1,3]dioxolo[4,5-f]quinazolin-4-yl)-5,6,7,8-tetrahydronaphthalen-2-ol] and `CC1OCCc2cc(O)cc(-c3c4c(c5c(N6C[C@H]7CC[C@@H](C6)N7)nc(OC[C@@]67CCCN6C[C@H](F)C7)nc5c3F)OCO4)c21` (stereo partly drawn) [Example 392, 8-(9-((1R,5S)-3,8-diazabicyclo[3.2.1]octan-3-yl)-5-fluoro-7-(((2R,7aS)-2-fluorotetrahydro-1H-pyrrolizin-7a(5H)-yl)methoxy)-[1,3]dioxolo[4,5-f]quinazolin-4-yl)-1-methylisochroman-6-ol] are within 1.5-fold of each other in IC50: 150 nM for the first, 110 nM for the second.

Going from `C#Cc1c(F)ccc2cc(O)cc(-c3c(Cl)cc4c(N5C[C@H]6CC[C@@H](C5)N6)nc(OC[C@@]56CCCN5C[C@H](F)C6)nc4c3OCC(F)(F)F)c12` [Example 331, 4-(4-((1R,5S)-3,8-diazabicyclo[3.2.1]octan-3-yl)-6-chloro-2-(((2R,7aS)-2-fluorotetrahydro-1H-pyrrolizin-7a(5H)-yl)methoxy)-8-(2,2,2-trifluoroethoxy)quinazolin-7-yl)-5-ethynyl-6-fluoronaphthalen-2-ol] to `C#Cc1c(F)ccc2cc(O)cc(-c3cc4nc(OC[C@@]56CCCN5C[C@H](F)C6)c(C(F)(F)F)c(N5C[C@H]6CC[C@@H](C5)N6)c4cn3)c12` [Example 195, 4-(4-((1R,5S)-3,8-diazabicyclo[3.2.1]octan-3-yl)-2-(((2R,7aS)-2-fluorotetrahydro-1H-pyrrolizin-7a(5H)-yl)methoxy)-3-(trifluoromethyl)-1,6-naphthyridin-7-yl)-5-ethynyl-6-fluoronaphthalen-2-ol], the IC50 rises from 823 nM to over 2500 nM. The first is the more potent here.

`[O-][S+]1C2CCC1CN(c1nc(OC[C@@]34CCCN3C[C@H](F)C4)nc3c(F)c(-c4cc(O)cc5ccc(F)c(F)c45)ncc13)C2` (stereo partly drawn) [Example 28, (1R,5S,8R)-3-(7-(7,8-difluoro-3-hydroxynaphthalen-1-yl)-8-fluoro-2-(((2R, 7aS)-2-fluorotetrahydro-1H-pyrrolizin-7a(5H)-yl)methoxy)pyrido[4,3-d]pyrimidin-4-yl)-8-thia-3-azabicyclo [3.2.1]octane 8-oxide] and `C#Cc1c(F)ccc2cc(O)cc(-c3ncc4c(N5CCC(NC)C5)nc(OC[C@@]56CCCN5C[C@H](F)C6)nc4c3F)c12` (stereo partly drawn) [Example 58, 5-ethynyl-6-fluoro-4-(8-fluoro-2-(((2R,7aS)-2-fluorotetrahydro-1H-pyrrolizin-7a(5H)-yl)methoxy)-4-(3-(methylamino)pyrrolidin-1-yl)pyrido[4,3-d]pyrimidin-7-yl)naphthalen-2-ol] cannot be ordered by IC50: over 1000 nM for the first, over 2500 nM for the second.

Compared with `C#Cc1c(F)ccc2cc(O)cc(-c3ccc4c(NCC5(N(C)C)CCC5)nc(OC[C@@]56CCCN5C[C@H](F)C6)nc4c3F)c12` [Example 430, 4-(4-(((1-(dimethylamino)cyclobutyl)methyl)amino)-8-fluoro-2-(((2R,7aS)-2-fluorotetrahydro-1H-pyrrolizin-7a(5H)-yl)methoxy)quinazolin-7-yl)-5-ethynyl-6-fluoronaphthalen-2-ol], `C#Cc1c(F)ccc2cc(O)cc(-c3ncc4c(N5CCC(C#N)CC5)nc(OC[C@@]56CCCN5C[C@H](F)C6)nc4c3F)c12` [Example 68, 1-(7-(8-ethynyl-7-fluoro-3-hydroxynaphthalen-1-yl)-8-fluoro-2-(((2R, 7aS)-2-fluorotetrahydro-1H-pyrrolizin-7a(5H)-yl)methoxy)pyrido[4,3-d]pyrimidin-4-yl)piperidine-4-carbonitrile] is 37-fold higher in IC50: 35 nM for the first, 1290 nM for the second. The first is the more potent here.

Compared with `Oc1cc(N2CCc3c(nc(OC[C@@]45CCCN4C[C@H](F)C5)nc3N3C[C@H]4CC[C@@H](C3)N4)C2)c2c(F)c(F)ccc2c1` [Example 204, 4-(4-((1R,5S)-3,8-diazabicyclo[3.2.1]octan-3-yl)-2-(((2R,7aS)-2-fluorotetrahydro-1H-pyrrolizin-7a(5H)-yl)methoxy)-5,8-dihydropyrido[3,4-d]pyrimidin-7(6H)-yl)-5,6-difluoronaphthalen-2-ol], `Oc1cc(C2=C(F)c3nc(OC[C@@]45CCCN4C[C@H](F)C5)nc(N4C[C@H]5CC[C@@H](C4)N5)c3C3=NCCN32)c2ccccc2c1` [Example 401, 4-(10-((1R,5S)-3,8-diazabicyclo[3.2.1]octan-3-yl)-6-fluoro-8-(((2R,7aS)-2-fluorotetrahydro-1H-pyrrolizin-7a(5H)-yl)methoxy)-2,3-dihydroimidazo[1′,2′:1,2]pyrido[4,3-d]pyrimidin-5-yl)naphthalen-2-ol] is 9.1-fold higher in IC50: 11 nM for the first, 100 nM for the second.

Going from `N#Cc1c(OC[C@@]23CCCN2C[C@H](F)C3)nc2c(F)c(-c3cc(O)cc4ccc(F)c(F)c34)ccc2c1N1C[C@H]2CC[C@@H](C1)N2` [Example 179, 4-((1R,5S)-3,8-diazabicyclo[3.2.1]octan-3-yl)-7-(7,8-difluoro-3-hydroxynaphthalen-1-yl)-8-fluoro-2-(((2R,7aS)-2-fluorotetrahydro-1H-pyrrolizin-7a(5H)-yl)methoxy)quinoline-3-carbonitrile] to `N#Cc1c(OC[C@@]23CCCN2C[C@H](F)C3)nc2cc(-c3cc(O)cc4cccc(F)c34)ccc2c1N1C[C@H]2CC[C@@H](C1)N2` [Example 176, 4-((1R,5S)-3,8-diazabicyclo[3.2.1]octan-3-yl)-7-(8-fluoro-3-hydroxynaphthalen-1-yl)-2-(((2R,7aS)-2-fluorotetrahydro-1H-pyrrolizin-7a(5H)-yl)methoxy)quinoline-3-carbonitrile], the IC50 rises from 550 nM to 1340 nM (2.4-fold). The first is the more potent here.

Molecule `C#Cc1cccc2cc(O)cc(-c3ccc4c(N5C[C@H]6CC[C@@H](C5)N6)nc(OCC5(CN6CCCC6)CC5)nc4c3F)c12` [Example 103, 4-(4-((1R,5S)-3,8-diazabicyclo[3.2.1]octan-3-yl)-8-fluoro-2-((1-(pyrrolidin-1-ylmethyl)cyclopropyl)methoxy)quinazolin-7-yl)-5-ethynylnaphthalen-2-ol] has an IC50 of 29 nM.
